Experiments:
Test in all cases: relative viability (nuclei count vs DMSO), 5 days (fraction); higher = more cells survive
[1] = compound: COC1=CC=C(C=C1)CN2C=CC3=C2C=C(C=C3)C(=O)NO + Cc1nc(NC(=O)N2CCC[C@H]2C(N)=O)sc1-c1ccnc(C(C)(C)C(F)(F)F)c1 [Alpelisib] (partner 2 µM)
Summary of the method: (§1)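 Relative viability is defined as nuclei in treated wells over nuclei in vehicle wells. Duplicate plates were run and medians reported. Lung cancer cell lines in 1536-well plates were dosed by pin tool one day after seeding, with one drug or with a fixed anchor-drug dose plus five library-drug doses (not always all listed) in √10 steps, and nuclei were counted after 5 days.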

[2] = compound: COC1=CC=C(C=C1)CN2C=CC3=C2C=C(C=C3)C(=O)NO + Cc1nc(Nc2ncc(C(=O)Nc3c(C)cccc3Cl)s2)cc(N2CCN(CCO)CC2)n1 [Dasatinib] (partner 0.075 µM)
Summary of the method: as §1

[3] = compound: C[C@]1(c2nc3c(C(N)=O)cccc3[nH]2)CCCN1 [Veliparib] + C[C@@H](Oc1cc(-c2cnn(C3CCNCC3)c2)cnc1N)c1c(Cl)ccc(F)c1Cl [Crizotinib] (partner 1 µM)
Summary of the method: as §1

[4] = compound: C[C@]1(c2nc3c(C(N)=O)cccc3[nH]2)CCCN1 [Veliparib] + COc1cc2c(Oc3ccc(NC(=O)C4(C(=O)Nc5ccc(F)cc5)CC4)cc3F)ccnc2cc1OCCCN1CCOCC1 [Foretinib] (partner 0.25 µM)
Summary of the method: as §1

Cell Line	relative viability ([1]; first compound 0.08 µM)	relative viability ([1]; first compound 0.253 µM)	relative viability ([1]; first compound 0.8 µM)	relative viability ([1]; first compound 2.53 µM)	relative viability ([1]; first compound 8 µM)	relative viability ([2]; first compound 0.253 µM)	relative viability ([2]; first compound 0.8 µM)	relative viability ([2]; first compound 2.53 µM)	relative viability ([2]; first compound 8 µM)	relative viability ([3]; first compound 0.02 µM)	relative viability ([3]; first compound 0.06325 µM)	relative viability ([3]; first compound 0.2 µM)	relative viability ([3]; first compound 0.6325 µM)	relative viability ([3]; first compound 2 µM)	relative viability ([4]; first compound 0.02 µM)	relative viability ([4]; first compound 0.06325 µM)	relative viability ([4]; first compound 0.2 µM)	relative viability ([4]; first compound 0.6325 µM)	relative viability ([4]; first compound 2 µM)	relative viability ([2]; first compound 0.08 µM)
LXF-289	0.394	1.03	1.12	1.05	1.01	0.202	0.237	0.246	0.181	0.784	0.777	0.818	0.727	0.83	0.986	0.956	0.957	0.984	0.962	–
NCI-H23	0.535	0.834	0.643	0.737	0.756	0.775	0.801	0.784	0.637	0.52	0.521	0.606	0.596	0.625	1.08	0.882	1.01	0.935	1.08	0.877
NCI-H322M	–	0.726	0.769	0.845	0.656	0.255	0.255	0.262	0.226	0.895	0.83	0.948	0.919	0.945	–	0.948	0.871	1	0.937	–
NCI-H358	–	0.941	0.985	0.919	0.829	0.152	0.192	0.157	0.126	–	0.533	0.564	0.523	0.618	0.723	0.647	0.623	0.625	0.573	–
NCI-H441	0.711	0.8	0.644	0.917	0.554	0.621	0.623	0.567	0.485	0.663	0.645	0.745	0.593	0.63	0.905	0.738	0.992	0.877	0.948	0.613
NCI-H460	0.36	0.535	0.506	0.359	0.338	0.556	0.553	0.48	0.343	–	0.869	0.934	0.734	1.02	0.994	0.909	0.952	0.948	0.983	0.545
NCI-H520	0.43	1.16	0.887	0.904	0.853	0.228	0.213	0.232	0.281	0.808	0.698	0.697	0.713	0.836	0.824	0.763	0.805	0.601	0.647	0.16
NCI-H596	0.532	0.53	0.384	0.561	0.474	0.614	0.603	0.558	0.465	1.05	0.912	1.06	0.862	0.957	0.967	0.823	1.02	0.773	0.75	0.588
NCI-H647	0.981	1.23	1.16	1.21	0.954	0.198	0.179	0.186	0.186	1.07	1.01	1.23	1.03	0.907	1.35	1.15	1.29	1.15	0.977	0.126
